Holding throughout (assay type): nucleic-acid assay
Assay [1] concerns Nucleic Acid. The experiment in a line: Stabilization of 5'-AGAGAGAAAGAAAAA-3' ssDNA sequence assessed as melting temperature at pH7 using 100 mM NaCl.
For assay [2], the system named is Nucleic Acid. The experiment in a line: Stabilization of 5'-AGAGAGAGAGAAAAA-3' ssDNA sequence assessed as melting temperature at pH7 using 100 mM NaCl.
In assay [3] the test system is Nucleic Acid. The experiment in a line: Stabilization of 5'-AGAGAGATAGAAAAA-3' ssDNA sequence assessed as melting temperature at pH7 using 100 mM NaCl.
The subject of assay [4] is Nucleic Acid. The assay can be described thus: Stabilization of 5'-AGAGAGACAGAAAAA-3' ssDNA sequence assessed as melting temperature at pH7 using 100 mM NaCl.

The structures appear in SMILES notation.

Turning to `Cc1cn([C@H]2C[C@H](OP(=O)(O)OC[C@H]3O[C@@H](n4cc(C)c(=O)[nH]c4=O)C[C@@H]3OP(=O)(O)OC[C@H]3O[C@@H](n4cc(C)c(N)nc4=O)C[C@@H]3OP(=O)(O)OC[C@H]3O[C@@H](n4cc(C)c(=O)[nH]c4=O)C[C@@H]3OP(=O)(O)OC[C@H]3O[C@@H](n4cc(C)c(N)nc4=O)C[C@@H]3OP(=O)(O)OC[C@H]3O[C@@H](n4cc(C)c(=O)[nH]c4=O)C[C@@H]3O)[C@@H](COP(=O)(O)O[C@H]3C[C@H](n4cc(C)c(=O)[nH]c4=O)O[C@@H]3COP(=O)(O)O[C@H]3C[C@H](c4cn(-c5ccc(C(=O)O)cc5)nn4)O[C@@H]3COP(=O)(O)O[C@H]3C[C@H](n4cc(C)c(=O)[nH]c4=O)O[C@@H]3COP(=O)(O)O[C@H]3C[C@H](n4cc(C)c(N)nc4=O)O[C@@H]3COP(=O)(O)O[C@H]3C[C@H](n4cc(C)c(=O)[nH]c4=O)O[C@@H]3COP(=O)(O)O[C@H]3C[C@H](n4cc(C)c(=O)[nH]c4=O)O[C@@H]3COP(=O)(O)O[C@H]3C[C@H](n4cc(C)c(=O)[nH]c4=O)O[C@@H]3COP(=O)(O)O[C@H]3C[C@H](n4cc(C)c(=O)[nH]c4=O)O[C@@H]3COP(=O)(O)O[C@H]3C[C@H](n4cc(C)c(=O)[nH]c4=O)O[C@@H]3CO)O2)c(=O)nc1N`, the Tm in the assay with Nucleic Acid [1] stood at 33 °C; in the assay on Nucleic Acid [2], 38 °C; with Nucleic Acid [3] it was 33 °C; with Nucleic Acid [4] it was 33 °C.

Turning to `Cc1cn([C@H]2C[C@H](OP(=O)(O)OC[C@H]3O[C@@H](n4cc(C)c(=O)[nH]c4=O)C[C@@H]3OP(=O)(O)OC[C@H]3O[C@@H](n4cc(C)c(N)nc4=O)C[C@@H]3OP(=O)(O)OC[C@H]3O[C@@H](n4cc(C)c(=O)[nH]c4=O)C[C@@H]3OP(=O)(O)OC[C@H]3O[C@@H](n4cc(C)c(N)nc4=O)C[C@@H]3OP(=O)(O)OC[C@H]3O[C@@H](n4cc(C)c(=O)[nH]c4=O)C[C@@H]3O)[C@@H](COP(=O)(O)O[C@H]3C[C@H](n4cc(C)c(=O)[nH]c4=O)O[C@@H]3COP(=O)(O)O[C@H]3C[C@H](c4cn(C56CC7CC(CC(C7)C5)C6)nn4)O[C@@H]3COP(=O)(O)O[C@H]3C[C@H](n4cc(C)c(=O)[nH]c4=O)O[C@@H]3COP(=O)(O)O[C@H]3C[C@H](n4cc(C)c(N)nc4=O)O[C@@H]3COP(=O)(O)O[C@H]3C[C@H](n4cc(C)c(=O)[nH]c4=O)O[C@@H]3COP(=O)(O)O[C@H]3C[C@H](n4cc(C)c(=O)[nH]c4=O)O[C@@H]3COP(=O)(O)O[C@H]3C[C@H](n4cc(C)c(=O)[nH]c4=O)O[C@@H]3COP(=O)(O)O[C@H]3C[C@H](n4cc(C)c(=O)[nH]c4=O)O[C@@H]3COP(=O)(O)O[C@H]3C[C@H](n4cc(C)c(=O)[nH]c4=O)O[C@@H]3CO)O2)c(=O)nc1N`, the Tm is 30 °C in the assay on Nucleic Acid [1], 37 °C in the assay with Nucleic Acid [2], 34 °C in the assay with Nucleic Acid [3] and 34 °C in the assay on Nucleic Acid [4].

As for `Cc1cn([C@H]2C[C@H](OP(=O)(O)OC[C@H]3O[C@@H](n4cc(C)c(=O)[nH]c4=O)C[C@@H]3OP(=O)(O)OC[C@H]3O[C@@H](n4cc(C)c(N)nc4=O)C[C@@H]3OP(=O)(O)OC[C@H]3O[C@@H](n4cc(C)c(=O)[nH]c4=O)C[C@@H]3OP(=O)(O)OC[C@H]3O[C@@H](n4cc(C)c(N)nc4=O)C[C@@H]3OP(=O)(O)OC[C@H]3O[C@@H](n4cc(C)c(=O)[nH]c4=O)C[C@@H]3O)[C@@H](COP(=O)(O)O[C@H]3C[C@H](n4cc(C)c(=O)[nH]c4=O)O[C@@H]3COP(=O)(O)O[C@H]3C[C@H](c4cn(CCCCCCCCCCO)nn4)O[C@@H]3COP(=O)(O)O[C@H]3C[C@H](n4cc(C)c(=O)[nH]c4=O)O[C@@H]3COP(=O)(O)O[C@H]3C[C@H](n4cc(C)c(N)nc4=O)O[C@@H]3COP(=O)(O)O[C@H]3C[C@H](n4cc(C)c(=O)[nH]c4=O)O[C@@H]3COP(=O)(O)O[C@H]3C[C@H](n4cc(C)c(=O)[nH]c4=O)O[C@@H]3COP(=O)(O)O[C@H]3C[C@H](n4cc(C)c(=O)[nH]c4=O)O[C@@H]3COP(=O)(O)O[C@H]3C[C@H](n4cc(C)c(=O)[nH]c4=O)O[C@@H]3COP(=O)(O)O[C@H]3C[C@H](n4cc(C)c(=O)[nH]c4=O)O[C@@H]3CO)O2)c(=O)nc1N`, the Tm in the assay on Nucleic Acid [1] was 35 °C; in the assay with Nucleic Acid [2], 39 °C; in the assay with Nucleic Acid [3] it was 39 °C; in the assay with Nucleic Acid [4], 39 °C.

As for `Cc1cn([C@H]2C[C@H](OP(=O)(O)OC[C@H]3O[C@@H](n4cc(C)c(=O)[nH]c4=O)C[C@@H]3OP(=O)(O)OC[C@H]3O[C@@H](n4cc(C)c(N)nc4=O)C[C@@H]3OP(=O)(O)OC[C@H]3O[C@@H](n4cc(C)c(=O)[nH]c4=O)C[C@@H]3OP(=O)(O)OC[C@H]3O[C@@H](n4cc(C)c(N)nc4=O)C[C@@H]3OP(=O)(O)OC[C@H]3O[C@@H](n4cc(C)c(=O)[nH]c4=O)C[C@@H]3O)[C@@H](COP(=O)(O)O[C@H]3C[C@H](n4cc(C)c(=O)[nH]c4=O)O[C@@H]3COP(=O)(O)O[C@H]3C[C@H](c4cn(Cc5ccccc5)nn4)O[C@@H]3COP(=O)(O)O[C@H]3C[C@H](n4cc(C)c(=O)[nH]c4=O)O[C@@H]3COP(=O)(O)O[C@H]3C[C@H](n4cc(C)c(N)nc4=O)O[C@@H]3COP(=O)(O)O[C@H]3C[C@H](n4cc(C)c(=O)[nH]c4=O)O[C@@H]3COP(=O)(O)O[C@H]3C[C@H](n4cc(C)c(=O)[nH]c4=O)O[C@@H]3COP(=O)(O)O[C@H]3C[C@H](n4cc(C)c(=O)[nH]c4=O)O[C@@H]3COP(=O)(O)O[C@H]3C[C@H](n4cc(C)c(=O)[nH]c4=O)O[C@@H]3COP(=O)(O)O[C@H]3C[C@H](n4cc(C)c(=O)[nH]c4=O)O[C@@H]3CO)O2)c(=O)nc1N`, the Tm in the assay with Nucleic Acid [1] stood at 32 °C; with Nucleic Acid [2], 38 °C; with Nucleic Acid [3], 33 °C; in the assay with Nucleic Acid [4] it was 34 °C.

On to `Cc1cn([C@H]2C[C@H](OP(=O)(O)OC[C@H]3O[C@@H](n4cc(C)c(=O)[nH]c4=O)C[C@@H]3OP(=O)(O)OC[C@H]3O[C@@H](n4cc(C)c(N)nc4=O)C[C@@H]3OP(=O)(O)OC[C@H]3O[C@@H](n4cc(C)c(=O)[nH]c4=O)C[C@@H]3O)[C@@H](COP(=O)(O)O[C@H]3C[C@H](n4cc(C)c(=O)[nH]c4=O)O[C@@H]3COP(=O)(O)O[C@H]3C[C@H](n4cc(C)c(N)nc4=O)O[C@@H]3COP(=O)(O)O[C@H]3C[C@H](n4cc(C)c(=O)[nH]c4=O)O[C@@H]3COP(=O)(O)O[C@H]3C[C@H](n4cc(C)c(=O)[nH]c4=O)O[C@@H]3COP(=O)(O)O[C@H]3C[C@H](n4cc(C)c(=O)[nH]c4=O)O[C@@H]3COP(=O)(O)O[C@H]3C[C@H](n4cc(C)c(N)nc4=O)O[C@@H]3COP(=O)(O)O[C@H]3C[C@H](n4cc(C)c(=O)[nH]c4=O)O[C@@H]3COP(=O)(O)O[C@H]3C[C@H](n4cc(C)c(=O)[nH]c4=O)O[C@@H]3COP(=O)(O)O[C@H]3C[C@H](n4cc(C)c(=O)[nH]c4=O)O[C@@H]3COP(=O)(O)O[C@H]3C[C@H](n4cc(C)c(=O)[nH]c4=O)O[C@@H]3COP(=O)(O)O[C@H]3C[C@H](n4cc(C)c(=O)[nH]c4=O)O[C@@H]3CO)O2)c(=O)nc1N`, for which the Tm came to 52 °C with Nucleic Acid [1], 42 °C in the assay on Nucleic Acid [2], 42 °C with Nucleic Acid [3] and 39 °C with Nucleic Acid [4].

On to `Cc1cn([C@H]2C[C@H](OP(=O)(O)OC[C@H]3O[C@@H](n4cc(C)c(=O)[nH]c4=O)C[C@@H]3OP(=O)(O)OC[C@H]3O[C@@H](n4cc(C)c(N)nc4=O)C[C@@H]3OP(=O)(O)OC[C@H]3O[C@@H](n4cc(C)c(=O)[nH]c4=O)C[C@@H]3OP(=O)(O)OC[C@H]3O[C@@H](n4cc(C)c(N)nc4=O)C[C@@H]3OP(=O)(O)OC[C@H]3O[C@@H](n4cc(C)c(=O)[nH]c4=O)C[C@@H]3O)[C@@H](COP(=O)(O)O[C@H]3C[C@H](n4cc(C)c(=O)[nH]c4=O)O[C@@H]3COP(=O)(O)O[C@H]3C[C@H](c4cn(C5CCCCC5)nn4)O[C@@H]3COP(=O)(O)O[C@H]3C[C@H](n4cc(C)c(=O)[nH]c4=O)O[C@@H]3COP(=O)(O)O[C@H]3C[C@H](n4cc(C)c(N)nc4=O)O[C@@H]3COP(=O)(O)O[C@H]3C[C@H](n4cc(C)c(=O)[nH]c4=O)O[C@@H]3COP(=O)(O)O[C@H]3C[C@H](n4cc(C)c(=O)[nH]c4=O)O[C@@H]3COP(=O)(O)O[C@H]3C[C@H](n4cc(C)c(=O)[nH]c4=O)O[C@@H]3COP(=O)(O)O[C@H]3C[C@H](n4cc(C)c(=O)[nH]c4=O)O[C@@H]3COP(=O)(O)O[C@H]3C[C@H](n4cc(C)c(=O)[nH]c4=O)O[C@@H]3CO)O2)c(=O)nc1N`, for which the Tm came to 34 °C with Nucleic Acid [1], 37 °C in the assay on Nucleic Acid [2], 33 °C in the assay with Nucleic Acid [3] and 34 °C in the assay with Nucleic Acid [4].

Consider `C#C[C@H]1C[C@H](OP(=O)(O)OC[C@H]2O[C@@H](n3cc(C)c(=O)[nH]c3=O)C[C@@H]2OP(=O)(O)OC[C@H]2O[C@@H](n3cc(C)c(N)nc3=O)C[C@@H]2OP(=O)(O)OC[C@H]2O[C@@H](n3cc(C)c(=O)[nH]c3=O)C[C@@H]2OP(=O)(O)OC[C@H]2O[C@@H](n3cc(C)c(N)nc3=O)C[C@@H]2OP(=O)(O)OC[C@H]2O[C@@H](n3cc(C)c(=O)[nH]c3=O)C[C@@H]2OP(=O)(O)OC[C@H]2O[C@@H](n3cc(C)c(N)nc3=O)C[C@@H]2OP(=O)(O)OC[C@H]2O[C@@H](n3cc(C)c(=O)[nH]c3=O)C[C@@H]2O)[C@@H](COP(=O)(O)O[C@H]2C[C@H](n3cc(C)c(=O)[nH]c3=O)O[C@@H]2COP(=O)(O)O[C@H]2C[C@H](n3cc(C)c(N)nc3=O)O[C@@H]2COP(=O)(O)O[C@H]2C[C@H](n3cc(C)c(=O)[nH]c3=O)O[C@@H]2COP(=O)(O)O[C@H]2C[C@H](n3cc(C)c(=O)[nH]c3=O)O[C@@H]2COP(=O)(O)O[C@H]2C[C@H](n3cc(C)c(=O)[nH]c3=O)O[C@@H]2COP(=O)(O)O[C@H]2C[C@H](n3cc(C)c(=O)[nH]c3=O)O[C@@H]2COP(=O)(O)O[C@H]2C[C@H](n3cc(C)c(=O)[nH]c3=O)O[C@@H]2CO)O1`, for which the Tm amounted to 32 °C in the assay with Nucleic Acid [1], 32 °C in the assay with Nucleic Acid [2], 31 °C in the assay with Nucleic Acid [3] and 29 °C in the assay with Nucleic Acid [4].

The record behind these values is ChEMBL document CHEMBL1795250, “Synthesis and base-pairing properties of C-nucleotides having 1-substituted 1H-1,2,3-triazoles” (Bioorg Med Chem Lett, 2009).
